Reference: patent publication US8084452B2, “Substituted enaminocarbonyl compounds used as insecticides” (Bayer Cropscience AG, priority 2006, dated 2011)

Assays:
Assay type in all cases: in vivo
Lucilia cuprina larvae = assay: Lucilia cuprina test (LUCICU); settings: 100 ppm, treated horse meat
Protocol: Lucilia cuprina Test (LUCICU)
To produce a suitable preparation of active compound, 1 part by weight of active compound is mixed with the stated amounts of solvent, and the concentrate is diluted with water to the desired concentration.
Containers containing horse meat treated with the preparation of active compound of the desired concentration are populated with Lucilia cuprina larvae.
After the desired period of time, the kill in % is determined 100% means that all larvae have been killed; 0% means that none of the larvae have been killed.

[1] = test system: green peach aphid (Myzus persicae); assay: Myzus test (MYZUPE spray treatment); settings: 500 g/ha, spray on Chinese cabbage leaf discs
Protocol: Myzus Test (MYZUPE Spray Treatment)
(§1) To produce a suitable preparation of active compound, 1 part by weight of active compound is mixed with the stated amounts of solvent and emulsifier, and the concentrate is diluted with emulsifier-containing water to the desired concentration.
Discs of Chinese cabbage leaves (Brassica pekinensis) which are infested by all stages of the green peach aphid (Myzus persicae) are sprayed with a preparation of active compound of the desired concentration.
After the desired period of time, the effect in % is determined 100% means that all aphids have been killed; 0% means that none of the aphids have been killed.

[2] = test system: whitefly (Bemisia tabaci); assay: Bemisia tabaci (BEMITA spray treatment); settings: 500 g/ha, spray on cotton leaf discs infested by larvae
Protocol: Bemisia tabaci (BEMITA Spray Treatment)
as §1
Discs of cotton leaves (Gossypium hirsutum) which are infested by larvae of the whitefly (Bemisia tabaci) are sprayed with a preparation of active compound of the desired concentration.
After the desired period of time, the effect in % is determined 100% means that all whiteflies have been killed; 0% means that none of the whiteflies have been killed.

[3] = test system: adult fleas (Ctenocephalides felis); assay: Ctenocephalides felis; oral (CTECFE); settings: 100 ppm in citrated cattle blood
Protocol: Ctenocephalides felis; Oral (CTECFE)
To produce a suitable preparation of active compound, 1 part by weight of active compound is mixed with the stated amount of solvent. Part of the concentrate is diluted with citrated cattle blood, and the desired concentration is prepared.
20 unfed adult fleas (Ctenocephalides felis) are placed into a chamber whose top and bottom ends are closed with gauze. A metal cylinder whose bottom end is closed with parafilm is placed onto the chamber. The cylinder contains the blood/active compound preparation, which can be taken up by the fleas through the parafilm membrane. The blood is warmed to 37° C., but the flea chamber is at room temperature.
After the desired period of time, the kill in % is determined 100% means that all fleas have been killed; 0% means that none of the fleas have been killed.

[4] = test system: brown planthopper (Nilaparvata lugens); assay: Nilaparvata lugens test (NILALU hydroponic treatment); settings: 100 g/ha (so in the source), active compound pipetted into water
Protocol: Nilanarvata lugens Test (NILALU Hydrononic Treatment)
as §1
The preparation of active compound is pipetted into water. […] The water is then infected with the brown planthopper (Nilaparvata lugens).
After the desired period of time, the effect in % is determined. 100% means that all planthoppers have been killed; 0% means that none of the planthoppers have been killed.

Meloidogyne incognita = assay: Meloidogyne test (MELGIN spray treatment); settings: 20 ppm, nematicidal activity by formation of galls on lettuce roots
Protocol: Meloidogyne Test (MELGIN Spray Treatment)
(§2) To produce a suitable preparation of active compound, 1 part by weight of active compound is mixed with the stated amounts of solvent and emulsifier, and the concentrate is diluted with water to the desired concentration.
Containers are filled with sand, active compound solution, Meloidogyne incognita egg/larvae suspension and lettuce seeds. The lettuce seeds germinate and the plants develop. On the roots, galls are formed.
After the desired period of time, the nematicidal activity is determined by the formation of galls in %. 100% means that no galls were found; 0% means that the number of galls on the treated plants corresponds to that of the untreated controls.

[5] = test system: cotton aphid (Aphis gossypii); assay: Aphis gossypii test (APHIGO), leaf dip; settings: 100 ppm, cotton leaves dipped
Protocol: Aphis gossypii Test (APHIGO)
as §1
Cotton leaves (Gossypium hirsutum) which are heavily infested by the cotton aphid (Aphis gossypii) are treated by being dipped into the preparation of active compound of the desired concentration.
(§3) After the desired period of time, the kill in % is determined 100% means that all aphids have been killed; 0% means that none of the aphids have been killed.

[6] = test system: cotton aphid (Aphis gossypii); assay: Aphis gossypii test (APHIGO G), watering; settings: 4 ppm, cotton plants watered
Protocol: Aphis gossypii Test; (APHIGO G)
as §2
Cotton plants (Gossypium hirsutum) which are heavily infested by the cotton aphid (Aphis gossypii) are watered with a preparation of active compound of the desired concentration.
(§4) After the desired period of time, the kill in % is determined. 100% means that all aphids have been killed; 0% means that none of the aphids have been killed.

[7] = test system: green peach aphid (Myzus persicae); assay: Myzus persicae test (MYZUPE G), watering; settings: 4 ppm, cabbage plants watered
Protocol: Myzus persicae Test; (MYZUPE G)
as §2
Cabbage plants (Brassica oleracea) which are heavily infested by the green peach aphid (Myzus persicae) are watered with a preparation of active compound of the desired concentration.
as §3

Boophilus microplus = Boophilus microplus test (BOOPMI injection); settings: 20 μg/animal injected into abdomen, 100% means no tick has laid fertile eggs
Protocol: Boophilus microplus Test (BOOPMI Injection)
To produce a suitable preparation of active compound, 1 part by weight of active compound is mixed with the stated amount of solvent, and the concentrate is diluted with solvent to the desired concentration.
The solution of active compound is injected into the abdomen (Boophilus microplus), and the animals are transferred into dishes and kept in a temperature-controlled room.
After the desired period of time, the effect in % is determined. 100% means that no tick has laid any fertile eggs.

[8] = test system: green peach aphid (Myzus persicae); assay: Myzus persicae test, hydroponic treatment (MYZUPE sys.); settings: 20 ppm in water, pea plant
Protocol: Myzus persicae Test, Hydroponic Treatment (MYZUPE Sys.)
as §2
The preparation of active compound is mixed with water. The stated concentration refers to the amount of active compound per volume unit of water (mg/l=ppm). The treated water is filled into containers housing a pea plant (Pisum sativum) which is then infected with the green peach aphid (Myzus persicae).
as §4

Structure (SMILES): O=C1C=C(N(Cc2cnc(Cl)c(F)c2)CC(F)F)CO1 [Example 1, 4-[[(6-Chloro-5-fluoropyridin-3-yl)methyl](2,2-difluoroethyl)amino]furan-2(5H)-one]
- Kill rate in % after 2 days (Lucilia cuprina larvae): 100%
- Kill rate in % after 5 days [1]: 100%
- Kill rate in % after 7 days [2]: 100%
- Kill rate in % after 2 days [3]: 80%

Structure (SMILES): O=C1C=C(N(CCF)Cc2cnc(Cl)c(Cl)c2)CO1 [Example 2, 4-[[(5,6-Dichloropyridin-3-yl)methyl](2-fluoroethyl)amino]furan-2(5H)-one]
- Kill rate in % after 7 days [4]: 80%
- Kill rate in % after 14 days (Meloidogyne incognita): 100%
- Kill rate in % after 5 days [1]: 100%
- Kill rate in % after 6 days [5]: 95%
- Kill rate in % after 10 days [6]: 100%
- Kill rate in % after 10 days [7]: 98%
- Kill rate in % after 7 days (Boophilus microplus): 100%
- Kill rate in % after 6 days [8]: 100%
